US8501940B2, “Tetrahydrocinnoline derivatives” (Hoffmann-La Roche Inc., priority 2008, dated 2013)

What follows are molecules tested against T1, human 11beta-HSD1 (Homo sapiens, UniProt P28845) (assay: Microsome assay (cortisone to cortisol conversion, ELISA detection)). Details: microsomes from HEK293 cells transiently expressing human 11beta-HSD1; Cortisone 50-200 nM, NADPH 1 mM; 60 min at 37° C.; cortisol by ELISA; read-out: h 11-beta-HSD 1 IC50.
T1 construct: made in house; host or cells: HEK293 cells (ATCC CRL-1573), transient transfection with a pcDNA3 construct; microsomal fraction used
Format: biochemical
Description: The cDNA encoding the human 11beta-HSD1 protein was cloned into the expression vector pcDNA3 (Stratagene). This construct (for details see Alex Odermatt et al.; J Biol Chem., 1999, Vol. 274, Issue 40, 28762-28770) was used to transiently express the protein in HEK293 cells (ATCC number: CRL-1573, described in Graham, F. L., Smiley, J., Russell, W. C., Nairn, R.; (1977)) using lipofectamine. 48 h after transfection cells were washed twice with ice-cold PBS (Phosphate buffered Saline). To 1 volume of cell suspension in PBS 2 volumes of ice-cold lysis buffer (50 mM Tris; pH7.5; 1 mM EDTA; 100 mM NaCl) were added. The cells were lysed by Potter-homogenization (20 strokes). The resulting homogenate was sonicated with a tip sonicator (10% output; 2×30 sec.) and cleared by a low speed centrifugation (10 min×9000 g; 4° C.). The microsomal fraction was collected by a high speed centrifugation (60 min×110,000 g). The resulting pellet was resuspended in storage buffer (20 mM Tris pH 7.5; 1 mM EDTA; 10% Glycerol) and the centrifugation was repeated. The resulting pellet containing the microsomal fraction was again taken up into storage buffer and aliquots were kept frozen in liquid Nitrogen until use.
Microsomes isolated from HEK293 cells transiently expressing human 11beta-HSD1 (for details see above) were incubated in assay buffer (100 mM NaCl; 1 mM EDTA; 1 mM EGTA; 1 mM MgCl; 250 mM Sucrose; 20 mM Tris pH 7.4; Cortisone 50-200 nM and NADPH 1 mM) together with different concentrations of test substances. After 60 min. of incubation at 37° C. the assay was stopped by heating to 80° C. (5 min.) and by addition of the inhibitor Carbenoxolone (1 uM). The amount of Cortisol produced in this assay was determined using a commercially available, ELISA-based Cortisol-detection kit (Distributed by Assay Design, Inc.). Inhibitors were characterized by there IC50 values, e.g. the concentration at which the production of cortisol was 50% reduced.

T1 sequence (P28845 whole entry): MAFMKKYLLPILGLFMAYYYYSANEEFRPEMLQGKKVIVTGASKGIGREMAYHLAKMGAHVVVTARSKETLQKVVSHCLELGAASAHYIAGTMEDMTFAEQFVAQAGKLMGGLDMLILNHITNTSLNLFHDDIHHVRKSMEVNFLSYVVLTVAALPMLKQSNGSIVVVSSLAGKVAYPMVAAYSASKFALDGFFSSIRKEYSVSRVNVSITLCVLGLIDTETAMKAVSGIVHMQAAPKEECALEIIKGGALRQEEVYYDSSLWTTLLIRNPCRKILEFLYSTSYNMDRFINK

Molecule	IC50 [pM]
CC(C)(C)c1cc2c(nn1)C1CCC2C12CC2 (single isomer, unassigned) [Example 2b, (5′S,8′R)-3′-tert-butyl-5′,6′,7′,8′-tetrahydrospiro[cyclopropane-1,9′-[1′,2′]diaza[5′,8′]methanocinnoline]]	13
c1c(C2CC2)nnc2c1C1CCC2CC1 [Example 7, 3-Cyclopropyl-5,6,7,8-tetrahydro-5,8-ethanocinnoline]	47
c1c(C2CC2)nnc2c1[C@H]1CC[C@@H]2C12CC2 [Example 5b, (5′S,8′R)-3′-cyclopropyl-5′,6′,7′,8′-tetrahydrospiro[cyclopropane-1,9′-[1′,2′]diaza[5′,8′]methanocinnoline]]	382
CC1(c2cc3c(nn2)C2CCC3C23CC3)CC1 (stereo not drawn) [Example 4, (5′RS,8′SR)-3′-(1-methylcyclopropyl)-5′,6′,7′,8′-tetrahydrospiro[cyclopropane-1,9′-[1′,2′]diaza[5′,8′]methanocinnoline]]	58
CC(C)(C)c1cc2c(nn1)C1CCC2C12CC2 (single isomer, unassigned) [Example 2a, (5′R,8′S)-3′-tert-butyl-5′,6′,7′,8′-tetrahydrospiro[cyclopropane-1,9′-[1′,2′]diaza[5′,8′]methanocinnoline]]	11
CC(C)(C)Cc1cc2c(nn1)C1CCC2C12CC2 (single isomer, unassigned) [Example 1b, (5′S,8′R)-3′-(2,2-dimethylpropyl)-5′,6′,7′,8′-tetrahydrospiro[cyclopropane-1,9′-[1′,2′]diaza[5′,8′]methanocinnoline]]	1
CC(C)(C)Cc1cc2c(nn1)C1CCC2CC1 [Example 9, 3-(2,2-Dimethylpropyl)-5,6,7,8-tetrahydro-5,8-ethanocinnoline]	1
CC1(c2cc3c(nn2)C2CCC3C23CCCC3)CC1 (stereo not drawn) [Example 11, (5′RS,8′SR)-3′-(1-methylcyclopropyl)-5′,6′,7′,8′-tetrahydrospiro[cyclopentane-1,9′-[1′,2′]diaza[5′,8′]methanocinnoline]]	2
CC(C)(C)Cc1cc2c(nn1)C1CCC2C12CC2 (stereo not drawn) [Example 1, (5′RS,8′SR)-3′-(2,2-dimethylpropyl)-5′,6′,7′,8′-tetrahydrospiro[cyclopropane-1,9′-[1′,2′]diaza[5′,8′]methanocinnoline]]	3
CC(C)(C)c1cc2c(nn1)C1CCC2CC1 [Example 10, 3-Tert-butyl-5,6,7,8-tetrahydro-5,8-ethanocinnoline]	2
CC(C)(C)c1cc2c(nn1)C1CCC2C12CC2 (stereo not drawn) [Example 2, (5′RS,8′SR)-3′-tert-butyl-5′,6′,7′,8′-tetrahydrospiro[cyclopropane-1,9′-[1′,2′]diaza[5′,8′]methanocinnoline]]	20
c1c(C2CC2)nnc2c1C1CCC2C12CC2 (stereo not drawn) [Example 5, (5′RS,8′SR)-3′-cyclopropyl-5′,6′,7′,8′-tetrahydrospiro[cyclopropane-1,9′-[1′,2′]diaza[5′,8′]methanocinnoline]]	603
CC1(Cc2cc3c(nn2)C2CCC3C23CC3)CC1 (stereo not drawn) [Example 3, (5′RS,8′SR)-3′-[(1-methylcyclopropyl)methyl]-5′,6′,7′,8′-tetrahydrospiro[cyclopropane-1,9′-[1′,2′]diaza[5′,8′]methanocinnoline]]	6
Cc1c(C2CC2)nnc2c1C1CCC2C12CC2 (stereo not drawn) [Example 6, (5′RS,8′SR)-3′-cyclopropyl-4′-methyl-5′,6′,7′,8′-tetrahydrospiro[cyclopropane-1,9′-[1′,2′]diaza[5′,8′]methanocinnoline]]	35
CC1(Cc2cc3c(nn2)C2CCC3CC2)CC1 [Example 8, 3-[(1-Methylcyclopropyl)methyl]-5,6,7,8-tetrahydro-5,8-ethanocinnoline]	6

Other lines, results leading:

IC50 [pM]	Molecule
1	FC(F)(F)c1ccccc1-c1cc2c(nn1)C1CCC2C12CC2 (stereo not drawn) [Example 22, (5′RS,8′SR)-3′-[2-(trifluoromethyl)phenyl]-5′,6′,7′,8′-tetrahydrospiro[cyclopropane-1,9′-[1′,2′]diaza[5′,8′]methanocinnoline]]
1	Cc1ccccc1-c1cc2c(nn1)C1CCC2C12CCCC2 (stereo not drawn) [Example 29, (5′RS,8′SR)-3′-(2-methylphenyl)-5′,6′,7′,8′-tetrahydrospiro[cyclopentane-1,9′-[1′,2′]diaza[5′,8′]methanocinnoline]]
5	(5′RS,8′SR)-3′-(2-methylphenyl)-5′,6′,7′,8′-tetrahydrospiro[cyclopropane-1,9′-[1′,2′]diaza[5′,8′]methanocinnoline] [Example 26]
7	Fc1ccc(-c2cc3c(nn2)C2CCC3C23CC3)c(Cl)c1 (stereo not drawn) [Example 21, (5′RS,8′SR)-3′-(2-chloro-4-fluorophenyl)-5′,6′,7′,8′-tetrahydrospiro[cyclopropane-1,9′-[1′,2′]diaza[5′,8′]methanocinnoline]]
13	c1c(C2CC2)nnc2c1C1CCC2C12CCCC2 (stereo not drawn) [Example 15, (5′RS,8′SR)-3′-cyclopropyl-5′,6′,7′,8′-tetrahydrospiro[cyclopentane-1,9′-[1′,2′]diaza[5′,8′]methanocinnoline]]
89	Cc1c(-c2cc3c(nn2)C2CCC3C23CC3)cnn1-c1ccccc1 (stereo not drawn) [Example 20, (5′RS,8′SR)-3′-(5-methyl-1-phenyl-1H-pyrazol-4-yl)-5′,6′,7′,8′-tetrahydrospiro[cyclopropane-1,9′-[1′,2′]diaza[5′,8′]methanocinnoline]]
6	FC(F)(F)c1ccc(Cl)cc1-c1cc2c(nn1)C1CCC2C12CCCC2 (stereo not drawn) [Example 32, (5′RS,8′SR)-3′-[5-chloro-2-(trifluoromethyl)phenyl]-5′,6′,7′,8′-tetrahydrospiro[cyclopentane-1,9′-[1′,2′]diaza[5′,8′]methanocinnoline]]
1	CC1(Cc2cc3c(nn2)C2CCC3C23CCCC3)CC1 (stereo not drawn) [Example 12, (5′RS,8′SR)-3′-[(1-methylcyclopropyl)methyl]-5′,6′,7′,8′-tetrahydrospiro[cyclopentane-1,9′-[1′,2′]diaza[5′,8′]methanocinnoline]]
1	Fc1ccc(-c2cc3c(nn2)C2CCC3C23CCCC3)c(Cl)c1 (stereo not drawn) [Example 28, (5′RS,8′SR)-3′-(2-chloro-4-fluorophenyl)-5′,6′,7′,8′-tetrahydrospiro[cyclopentane-1,9′-[1′,2′]diaza[5′,8′]methanocinnoline]]
1	Fc1ccc(-c2cc3c(nn2)C2CCC3C23CCCC3)c(C(F)(F)F)c1 (stereo not drawn) [Example 27, (5′RS,8′SR)-3′-[4-fluoro-2-(trifluoromethyl)phenyl]-5′,6′,7′,8′-tetrahydrospiro[cyclopentane-1,9′-[1′,2′]diaza[5′,8′]methanocinnoline]]
2	Fc1ccc(-c2cc3c(nn2)C2CCC3C23CC3)c(C(F)(F)F)c1 (stereo not drawn) [Example 19, (5′RS,8′SR)-3′-[4-fluoro-2-(trifluoromethyl)phenyl]-5′,6′,7′,8′-tetrahydrospiro[cyclopropane-1,9′-[1′,2′]diaza[5′,8′]methanocinnoline]]
1	CC(C)(C)Cc1cc2c(nn1)C1CCC2C12CCCC2 (stereo not drawn) [Example 13, (5′RS,8′SR)-3′-(2,2-dimethylpropyl)-5′,6′,7′,8′-tetrahydrospiro[cyclopentane-1,9′-[1′,2′]diaza[5′,8′]methanocinnoline]]
13	Cc1c(-c2cc3c(nn2)C2CCC3C23CCCC3)cnn1C(C)(C)C (stereo not drawn) [Example 31, (5′RS,8′SR)-3′-(1-tert-butyl-5-methyl-1H-pyrazol-4-yl)-5′,6′,7′,8′-tetrahydrospiro[cyclopentane-1,9′-[1′,2′]diaza[5′,8′]methanocinnoline]]
95	Cc1c(-c2cc3c(nn2)C2CCC3C23CC3)cnn1C(C)(C)C (stereo not drawn) [Example 23, (5′RS,8′SR)-3′-(1-tert-butyl-5-methyl-1H-pyrazol-4-yl)-5′,6′,7′,8′-tetrahydrospiro[cyclopropane-1,9′-[1′,2′]diaza[5′,8′]methanocinnoline]]
37	CC1(Cc2cc3c(nn2)[C@H]2CC[C@@H]3C2)CC1 (racemic) [Example 18, (5RS,8SR)-3-[(1-methylcyclopropyl)methyl]-5,6,7,8-tetrahydro-5,8-methanocinnoline]
2	CC(C)(C)c1cc2c(nn1)C1CCC2C12CCCC2 (stereo not drawn) [Example 14, (5′RS,8′SR)-3′-tert-butyl-5′,6′,7′,8′-tetrahydrospiro[cyclopentane-1,9′-[1′,2′]diaza[5′,8′]methanocinnoline]]
1	CC1(Cc2cc3c(nn2)[C@@]2(C)CC[C@@H]3C2(C)C)CC1 [Example 17, (5R,8S)-8,9,9-trimethyl-3-[(1-methylcyclopropyl)methyl]-5,6,7,8-tetrahydro-5,8-methanocinnoline]
